Data reported in patent US20140135220A1, “Methods for post emergent weed control with Pyroxasulfone and Lactofen” (Valent U.S.A., Corporation, priority 2012, published 2014).

Tests used:
Soybeans = experiment: Example 2: phytotoxicity of the treatments on soybeans; conditions: soybean, in vivo, 28 days after treatment
From the text: (§1) In order to determine the efficacy of combinations of pyroxasulfone and lactofen, numerous treatments were applied to plots in an area with abundant Palmer Amaranth and Ivyleaf Morning Glory growth. Soybeans were planted approximately 22 days before treatment. Treatments were applied with a backpack sprayer with a size 6 nozzle at a pace of 3 miles per hour during dry conditions. Each treatment was done in triplicate. Treatments were applied with a water volume of 20 gallons per acre applied at 40 PSI with a ground speed of 3 MPH. At the time of treatment, Palmer Amaranth plants were approximately 2 to 6 inches tall, and Ivyleaf Morning Glory was approximately 3 to 6 inches tall. Effect of Pyroxasulfone and Lactofen Treatments on Palmer Amaranth” and “Table 3. Effect of Pyroxasulfone and Lactofen Treatments on Ivyleaf Morning Glory.”
Applicants also evaluated the phototoxicity of the treatments on soybeans. […] Effect of Pyroxasulfone and Lactofen Treatments on Soybeans,” there were no phytotoxic effects 28 days following treatments.

Palmer Amaranth [1] = experiment: Example 2: post emergence treatments on soybean plots, control of Palmer Amaranth; assay type: in vivo; design: scale not given here
From the text: as §1

Palmer Amaranth [2] = experiment: Example 1: post emergence treatments on field plots with Palmer Amaranth; assay type: in vivo; conditions: COC 1% v/v
From the text: In order to determine the efficacy of combinations of pyroxasulfone and lactofen, numerous treatments were applied to plots in an area with abundant Palmer Amaranth growth. Treatments were applied to Palmer that were between 1 and 2 inches tall with a water volume of 20 gallons per acre applied at 35 PSI with a ground speed of 3 MPH. Treatments were repeated 10 days after the first application on another set of plots with Palmer 3 to 12 inches tall with a water volume of 20 gallons per acre applied at 35 PSI with a ground speed of 3 MPH.
The number of living Palmer Amaranth plants was evaluated at 7, 18, 24, and 38 days following the first treatment and 8, 14, and 28 days following the second treatment. Effect of Pyroxasulfone and Lactofen Treatments on Palmer Amaranth.”

Ivyleaf Morning Glory = experiment: Example 2: post emergence treatments on soybean plots, control of Ivyleaf Morning Glory; assay type: in vivo; design: scale not given here
From the text: as §1

weeds = conditions: as a post emergence treatment, applied alone; previous studies; cited from earlier work
[3] = plot 2, Pyroxasulfone 0.213 lb ai/a

Q: For `CCOC(=O)C(C)OC(=O)c1cc(Oc2ccc(C(F)(F)F)cc2Cl)ccc1[N+](=O)[O-]` (racemic) [Lactofen, ethyl O-[5-(2-chloro-α,α,α-trifluoro-p-tolyloxy)-2-nitrobenzoyl]-DL-lactate], which “Effect on Soybeans (phytotoxicity) 28 DAT” value (Soybeans) is on record?
A: 0.0

Q: What about the “Effect on Palmer Amaranth 6 DAT” value (Palmer Amaranth [1]; plot 8, Lactofen 8 fl oz/a) of the same molecule?
A: 86.7

Q: What about the “Effect on Palmer Amaranth 14 DAT” value (Palmer Amaranth [1]; plot 8, Lactofen 8 fl oz/a) of the same molecule?
A: 65.0

Q: And the “Effect on Palmer Amaranth 28 DAT” value (Palmer Amaranth [1]; plot 8, Lactofen 8 fl oz/a)?
A: 46.7

Q: What about the “Effect on Palmer Amaranth 6 DAT” value (Palmer Amaranth [1]; plot 9, Lactofen 10.0 fl oz/a) of the same molecule?
A: 84.7

Q: What about the “Effect on Palmer Amaranth 14 DAT” value (Palmer Amaranth [1]; plot 9, Lactofen 10.0 fl oz/a) of the same molecule?
A: 68.3

Q: And the “Effect on Palmer Amaranth 28 DAT” value (Palmer Amaranth [1]; plot 9, Lactofen 10.0 fl oz/a)?
A: 46.7

Q: And the “Effect on Palmer Amaranth 6 DAT” value (Palmer Amaranth [1]; plot 10, Lactofen 12.5 fl oz/a)?
A: 85.0

Q: What about the “Effect on Palmer Amaranth 14 DAT” value (Palmer Amaranth [1]; plot 10, Lactofen 12.5 fl oz/a) of the same molecule?
A: 71.7

Q: What about the “Effect on Palmer Amaranth 28 DAT” value (Palmer Amaranth [1]; plot 10, Lactofen 12.5 fl oz/a) of the same molecule?
A: 43.3

Q: What about the “Palmer Amaranth (% Control) 7 DAT” value (Palmer Amaranth [2]; plot 3, Lactofen 12.5 fl oz/a) of the same molecule?
A: 66.0%

Q: And the “Palmer Amaranth (% Control) 8/18 DAT” value (Palmer Amaranth [2]; plot 3, Lactofen 12.5 fl oz/a)?
A: 97.7%

Q: What about the “Palmer Amaranth (% Control) 14/24 DAT” value (Palmer Amaranth [2]; plot 3, Lactofen 12.5 fl oz/a) of the same molecule?
A: 97.7%

Q: What about the “Palmer Amaranth (% Control) 28/38 DAT” value (Palmer Amaranth [2]; plot 3, Lactofen 12.5 fl oz/a) of the same molecule?
A: 99.0%

Q: What about the “Effect on Ivyleaf Morning Glory 6 DAT” value (Ivyleaf Morning Glory; plot 8, Lactofen 8 fl oz/a) of the same molecule?
A: 61.7

Q: What about the “Effect on Ivyleaf Morning Glory 14 DAT” value (Ivyleaf Morning Glory; plot 8, Lactofen 8 fl oz/a) of the same molecule?
A: 48.3

Q: And the “Effect on Ivyleaf Morning Glory 28 DAT” value (Ivyleaf Morning Glory; plot 8, Lactofen 8 fl oz/a)?
A: 20.0

Q: And the “Effect on Ivyleaf Morning Glory 6 DAT” value (Ivyleaf Morning Glory; plot 9, Lactofen 10.0 fl oz/a)?
A: 71.7

Q: And the “Effect on Ivyleaf Morning Glory 14 DAT” value (Ivyleaf Morning Glory; plot 9, Lactofen 10.0 fl oz/a)?
A: 58.3

Q: What about the “Effect on Ivyleaf Morning Glory 28 DAT” value (Ivyleaf Morning Glory; plot 9, Lactofen 10.0 fl oz/a) of the same molecule?
A: 20.0

Q: And the “Effect on Ivyleaf Morning Glory 6 DAT” value (Ivyleaf Morning Glory; plot 10, Lactofen 12.5 fl oz/a)?
A: 68.3

Q: And the “Effect on Ivyleaf Morning Glory 14 DAT” value (Ivyleaf Morning Glory; plot 10, Lactofen 12.5 fl oz/a)?
A: 56.7

Q: And the “Effect on Ivyleaf Morning Glory 28 DAT” value (Ivyleaf Morning Glory; plot 10, Lactofen 12.5 fl oz/a)?
A: 23.3

Q: Which post emergence activity (weeds) does the source give for `Cn1nc(C(F)(F)F)c(CS(=O)(=O)C2=NOC(C)(C)C2)c1OC(F)F` [Pyroxasulfone, 5-(difluoromethoxy)-1-methyl-3-(trifluoromethyl)pyrazol-4-ylmethyl 4,5-dihydro-5,5-dimethyl-1,2-oxazol-3-yl sulfone] here?
A: poor activity

Q: What about the “Palmer Amaranth (% Control) 7 DAT” value (Palmer Amaranth [2]; [3]) of the same molecule?
A: 66.9%

Q: And the “Palmer Amaranth (% Control) 8/18 DAT” value (Palmer Amaranth [2]; [3])?
A: 85.0%

Q: What about the “Palmer Amaranth (% Control) 14/24 DAT” value (Palmer Amaranth [2]; [3]) of the same molecule?
A: 45.0%

Q: And the “Palmer Amaranth (% Control) 28/38 DAT” value (Palmer Amaranth [2]; [3])?
A: 61.7%
